How the values were obtained:
HCMV TB40-YFP = HCMV TB40-YFP replication assay in HFFs; format: cell-based, human cytomegalovirus; details: Human betaherpesvirus 5, HFF, read-out: EC50 TB40-YFP
Procedure: (§1) (i.e., 1 × TCID25/7d). Immediately after virus adsorption, the cells were treated with antiviral compounds or solvent control (DMSO). Infections were performed in biological quadruplicates, or as indicated for individual experiments. The cells were fixed by the addition of 150 µL 10% formalin/well 7 d p.i. (Merlin-GFP 14 d p.i.), and washed with PBS. For GFP or YFP quantitation, the Victor X4 microplate reader (PerkinElmer, Waltham, MA, USA) was primarily used, or as a very sensitive alternative, the ImageXpress® Pico device (Molecular Devices LLC, San Jose, CA, USA). Mean EC50 values of antiviral efficacy were calculated on the basis of three experimental replicates or as indicated (measurement of fluorescence values in quadruplicate), and percentage values were provided relative to the solvent control (DMSO).

GPCMV-GFP = GPCMV-GFP replication assay in GPEFs; format: cell-based, guinea pig cytomegalovirus; details: Caviid betaherpesvirus 2, read-out: EC50 GPCMV
Text: Similarly, 2 × 10^4 primary embryonic guinea pig fibroblasts GPEFs/96-well, or 1.35 × 10^4 HFFs/96-well, or 2 × 10^4 rat REFs/96-well, or 2 × 10^4 murine MEFs/96-well, were cultivated for infection with GPCMV-GFP, RhCMV-GFP, ChCMV, RCMV-mCherry, or MCMV-GFP, respectively (all approx. MOI of 0.01 referring to 1 × TCID25), and were used for the assessment of antiviral drug activity. To this end, cells were fixed 7 d p.i. (RCMV-mCherry 4 d p.i.), before GFP or mCherry expression was quantified using the Victor X4 microplate reader, or other viral replication markers were measured as explained for the individual experiments. ChCMV replication in HFFs was monitored and quantified by the use of Anti-Cytomegalovirus Antibody Alexa Fluor™ 488. For immunofluorescence staining with Anti-Cytomegalovirus Antibody Alexa Fluor™ 488 (Sigma Aldrich, St. Louis, MO, USA; solution in PBS with 1% FCS), the infected cells were fixed at 7 d p.i. with 10% formalin and permeabilized with 0.2% Triton-x-100. Cell nuclei were counterstained using Höchst dye to be measured using the ImageXpress Pico (Molecular Devices, LLC, San Jose, CA, USA). Mean EC50 values of antiviral efficacy were calculated on the basis of three experimental replicates or as indicated (measurement of fluorescence values in quadruplicate), and percentage values were provided relative to the solvent control (DMSO).
To address cell viability after compound treatment, a NR uptake assay was performed. Uninfected cells were seeded at equal numbers as for antiviral replication assays and treated with compounds or solvent control. […] NR fluorescence was quantified using the Victor X4 microplate reader (PerkinElmer, Waltham, MA, USA) (560/630 nm). For the AB cell viability assay, which was also used to quantify virus-induced cytopathogenicity (particularly in the case of GPCMV in GPEFs), cells were seeded at equal numbers as for antiviral replication assays and incubated with a medium containing 25 ng/mL AB (resazurin; Ann Arbor, MI, USA), incubated for 6 h at 37 °C, and used for measurement identical with NR.

HCMV Merlin-GFP = HCMV Merlin-GFP replication assay in HFFs; format: cell-based, human cytomegalovirus; details: Human betaherpesvirus 5, HFF, read-out: EC50 Merlin-GFP
Procedure: as §1

HCMV AD169-GFP = HCMV AD169-GFP replication assay in U373 cells; format: cell-based, human cytomegalovirus; details: Human betaherpesvirus 5, AD169, U373 MG, read-out: EC50 AD169-GFP
Procedure: as §1

Row | Compound | EC50 (HCMV TB40-YFP) [nM] | EC50 (GPCMV-GFP) [nM] | EC50 (HCMV Merlin-GFP) [nM] | EC50 (HCMV AD169-GFP) [nM]
1 | CN(C)C(=O)Cn1cc(-c2ccc(-c3cncc4ccccc34)cc2)cn1 [BI-1347] | 2.83 ± 2.3 | 1.11 ± 2.37 | 0.54 ± 0.99 | 10.8 ± 5.73
2 | Cn1ncc2cc(-c3cnc(N)c(Cl)c3N3CCC4(CCNC4=O)CC3)ccc21 [CCT-151921] | 10 ± 6.33 | 19.4 ± 33.2 | 1.27 ± 1.17 | 16.3 ± 7.13
3 | Cc1n[nH]c2ncc(C(=O)N3CCC[C@H]3c3ccc(Cl)cc3)cc12 [MSC-2530818] | 4.97 ± 3.3 | 4.48 ± 4.84 | 5.55 ± 5.63 | 18.5 ± 11.2
